Converted amounts (≈) assume the structure as drawn.
Columns and labels:
[1] = system: B. subtilis RC3; format: cell-based, Bacillus subtilis; conditions: resistant clone of B. subtilis 168; ClpP A76→T (ClpP core; α3)
Method: (§1) Determination of antibacterial activity: ADEP1 was purified from the culture supernatant of S. hawaiiensis NRRL 15010 as described.4 ADEPs 2, 4, 7, 9 were custom synthesised by EMC Microcollections, Tübingen, or provided by AiCuris, Wuppertal, Germany. The minimal inhibitory concentration (MIC) was determined by broth microdilution in Mueller‐Hinton broth (without cation adjustment) according to the guidelines of the Clinical Laboratory Standards Institute (CLSI).69 The inoculum was set to 5×10^4 CFU mL^−1 to allow some distance to the determined spontaneous resistance frequencies. […] All other ADEPs were used from DMSO stock solutions kept at −20 °C.
(§2) Screening for ADEP‐resistant mutants and determination of resistance rates: Single colonies of wild‐type strains grown on Mueller‐Hinton agar plates overnight were suspended in sterile saline and a final inoculum of 5×10^6 cells was spread on plates supplemented with different ADEP congeners at 4× and 10× the MIC. For B. subtilis strain 3xclpP, ADEP7‐containing Mueller‐Hinton agar plates were additionally supplemented with 1 mM IPTG. Resistant colonies were counted after 24 h at 37 °C and colonies were randomly chosen for MIC determinations and sequencing. Mutations in the clpP gene of the respective isolated mutants were analysed by amplifying the clpP gene (and upstream promoter region) by PCR and sequencing of the resulting PCR amplicons (LGC genomics). Sequencing data were analysed by using SnapGene software (GSL Biotech).

[2] = system: B. subtilis RC9; format: cell-based, Bacillus subtilis; conditions: resistant clone of B. subtilis 168; ClpP I165→N (equatorial interface; α6)
Method: as §1, §2

[3] = system: B. subtilis RC12; format: cell-based, Bacillus subtilis; conditions: resistant clone of B. subtilis 168; ClpP A101→T (ClpP core; α4)
Method: as §1, §2

[4] = system: B. subtilis RC1; format: cell-based, Bacillus subtilis; conditions: resistant clone of B. subtilis 168; ClpP E156→STOP, premature stop
Method: as §1, §2

[5] = system: B. subtilis 3xclpP clones; format: cell-based, Bacillus subtilis; conditions: B. subtilis 3xclpP resistant clones
Method: as §1, §2

[6] = system: B. subtilis RC10; format: cell-based, Bacillus subtilis; conditions: resistant clone of B. subtilis 168; ClpP A177→V (C-terminus; α7)
Method: as §1, §2

[7] = system: E. faecalis ATCC 29212; test: microbe, parasite or virus in culture; format: cell-based, Enterococcus faecalis; conditions: broth microdilution, Mueller-Hinton broth (without cation adjustment), CLSI, inoculum 5×10^4 CFU mL^−1; wild type
Method: as §1

[8] = system: S. aureus RC10; format: cell-based, Staphylococcus aureus; conditions: resistant clone of S. aureus ATCC 29213; ClpP I165→M (equatorial interface; α6)
Method: as §1, §2

[9] = system: S. aureus RC4; format: cell-based, Staphylococcus aureus; conditions: resistant clone of S. aureus 133; ClpP N173→D, ring-ring interaction
Method: as §1, §2

[10] = system: S. aureus RC17; format: cell-based, Staphylococcus aureus; conditions: resistant clone of S. aureus ATCC 29213; ClpP A133→V, ring-ring interaction
Method: as §1, §2

[11] = system: S. aureus RC18; format: cell-based, Staphylococcus aureus; conditions: resistant clone of S. aureus ATCC 29213; ClpP R23→P, N-terminal gate
Method: as §1, §2

[12] = system: S. aureus RC7; format: cell-based, Staphylococcus aureus; conditions: resistant clone of S. aureus ATCC 29213; ClpP Q89→STOP, premature stop
Method: as §1, §2

[13] = system: S. aureus RC3; format: cell-based, Staphylococcus aureus; conditions: resistant clone of S. aureus 133; ClpP A133→T, ring-ring interaction
Method: as §1, §2

[14] = system: S. aureus RC15; format: cell-based, Staphylococcus aureus; conditions: resistant clone of S. aureus ATCC 29213; ClpP E52→STOP, premature stop
Method: as §1, §2

[15] = system: S. aureus RC1; format: cell-based, Staphylococcus aureus; conditions: resistant clone of S. aureus 133; ClpP Q132→H, oligomerisation sensor
Method: as §1, §2

[16] = system: S. aureus RC12; format: cell-based, Staphylococcus aureus; conditions: resistant clone of S. aureus ATCC 29213; ClpP E9→V, N-terminal gate
Method: as §1, §2

[17] = system: S. aureus RC6; format: cell-based, Staphylococcus aureus; conditions: resistant clone of S. aureus 133; ClpP Q35→STOP, premature stop
Method: as §1, §2

[18] = system: S. aureus RC13; format: cell-based, Staphylococcus aureus; conditions: resistant clone of S. aureus ATCC 29213; ClpP G68→V (ClpP core)
Method: as §1, §2

[19] = system: S. aureus RC2; format: cell-based, Staphylococcus aureus; conditions: resistant clone of S. aureus 133; ClpP M190→T, ADEP binding site
Method: as §1, §2

[20] = system: S. aureus RC5; format: cell-based, Staphylococcus aureus; conditions: resistant clone of S. aureus 133; ClpP A133→V, ring-ring interaction
Method: as §1, §2

[21] = system: S. aureus RC9; format: cell-based, Staphylococcus aureus; conditions: resistant clone of S. aureus ATCC 29213; ClpP H123→R, active site
Method: as §1, §2

[22] = system: S. aureus RC16; format: cell-based, Staphylococcus aureus; conditions: resistant clone of S. aureus ATCC 29213; ClpP A114→T (ClpP core; β5)
Method: as §1, §2

[23] = system: S. aureus RC14; format: cell-based, Staphylococcus aureus; conditions: resistant clone of S. aureus ATCC 29213; ClpP I91→T; A96→V (ClpP core; β3, β4)
Method: as §1, §2

[24] = system: S. aureus RC8; format: cell-based, Staphylococcus aureus; conditions: resistant clone of S. aureus ATCC 29213; Δ107 nt, C-terminal truncation
Method: as §1, §2

[25] = system: S. aureus RC11; format: cell-based, Staphylococcus aureus; conditions: resistant clone of S. aureus ATCC 29213; ClpP Q82→P (ClpP core; α3)
Method: as §1, §2

With `C[C@@H]1C[C@H]2C(=O)OC[C@H](NC(=O)[C@H](Cc3cc(F)cc(F)c3)NC(=O)CCC3CCCCC3)C(=O)N3CCC[C@H]3C(=O)N3CCCC[C@H]3C(=O)N[C@@H](C)C(=O)N2C1` [ADEP2] the MIC [1] was 16 to 32 µg/mL, the MIC [2] was over 64 µg/mL and the MIC [3] was over 64 µg/mL. For the same compound, the MIC [4] was over 64 µg/mL, the “MIC, clpP mutations in the ectopic loci” value ([5]; mutation in lacA or aprE ectopic copy) was about 1 µg/mL (≈ 1.25 µM) and the “MIC, clpP mutation in the original locus” value ([5]; mutation in native clpP locus) was over 64 µg/mL. The MIC [6] was over 64 µg/mL, the MIC [7] was at most 0.031 µg/mL and the MIC [8] was over 64 µg/mL. For the same compound, the MIC [9] was over 64 µg/mL, the MIC [10] was over 64 µg/mL and the MIC [11] was over 64 µg/mL. The MIC [12] was over 64 µg/mL, the MIC [13] was over 64 µg/mL and the MIC [14] was over 64 µg/mL. It also gave an MIC [15] of 8 µg/mL (≈ 10 µM), an MIC [16] of over 64 µg/mL and an MIC [17] of over 64 µg/mL. The MIC [18] was over 64 µg/mL, the MIC [19] was 2 µg/mL (≈ 2.5 µM) and the MIC [20] was over 64 µg/mL. For the same compound, the MIC [21] was over 64 µg/mL, the MIC [22] was over 64 µg/mL and the MIC [23] was over 64 µg/mL. For the same compound, the MIC [24] was over 64 µg/mL and the MIC [25] was over 64 µg/mL.
